# Laboratory results: PubChem BioAssay (NCI)
#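 Here, GI50 denotes the concentration required for 50% inhibition of growth. Definition used: TGI = concentration required for complete inhibition of growth.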
# How the values were obtained:
# Experiment in all cases: NCI tumour cell line growth inhibition, 384-well format
# [1] = test system: IGROV1 ovarian
# [2] = test system: MDA-MB-468 breast
# [3] = test system: NCI-H23 lung
# [4] = test system: HCT-116 colon
# [5] = test system: SR leukemia
# [6] = test system: PC-3 prostate
# [7] = test system: MDA-MB-435 melanoma
# [8] = test system: SK-MEL-5 melanoma
# [9] = test system: OVCAR-3 ovarian
# [10] = test system: SK-MEL-28 melanoma
# [11] = test system: DU-145 prostate
# [12] = test system: NCI-H322M lung
# [13] = test system: SF-268 CNS
# [14] = test system: KM12 colon
# [15] = test system: UACC-257 melanoma
# [16] = test system: SF-539 CNS
# [17] = test system: HT29 colon
# [18] = test system: UACC-62 melanoma
# [19] = test system: CAKI-1 renal
# [20] = test system: LOX IMVI melanoma
# [21] = test system: K-562 leukemia
# [22] = test system: SN12C renal
# [23] = test system: NCI-H522 lung
# [24] = test system: SNB-75 CNS
# [25] = test system: HCC-2998 colon
# [26] = test system: SW-620 colon
# [27] = test system: U251 glioblastoma
# [28] = test system: RPMI-8226 leukemia
# [29] = test system: 786-0 renal
# [30] = test system: ACHN renal
# [31] = test system: SK-OV-3 ovarian
# [32] = test system: COLO 205 colon
# [33] = test system: HS 578T breast
# [34] = test system: HCT-15 colon
# [35] = test system: SK-MEL-2 melanoma
# [36] = test system: EKVX NSCLC
# [37] = test system: NCI/ADR-RES ovarian
# [38] = test system: OVCAR-4 ovarian
# [39] = test system: M14 melanoma
# [40] = test system: A498 renal
# [41] = test system: HOP-62 NSCLC
# [42] = test system: NCI-H226 lung
# [43] = test system: MDA-MB-231 breast
# [44] = test system: CCRF-CEM leukemia
# [45] = test system: HL-60(TB) leukemia
# [46] = test system: OVCAR-8 ovarian
# [47] = test system: OVCAR-5 ovarian
smiles,measurement,setting,value
COC(=O)c1ccc2c(C(=Nc3ccc(N(C)C(=O)CN4CCN(C)CC4)cc3)c3ccccc3)c(O)[nH]c2c1,GI50,[1],427 nM
same,TGI,[1],4470 nM
same,GI50,[2],1670 nM
same,TGI,[2],3080 nM
same,GI50,[3],1790 nM
same,TGI,[3],5170 nM
same,GI50,[4],1400 nM
same,TGI,[4],2720 nM
same,GI50,[5],734 nM
same,TGI,[5],2020 nM
same,GI50,[6],2660 nM
same,TGI,[6],10300 nM
same,GI50,[7],1860 nM
same,TGI,[7],3330 nM
same,GI50,[8],2190 nM
same,TGI,[8],3640 nM
same,GI50,[9],1780 nM
same,TGI,[9],3260 nM
same,GI50,[10],1690 nM
same,TGI,[10],3080 nM
same,GI50,[11],1790 nM
same,TGI,[11],3340 nM
same,GI50,[12],1410 nM
same,TGI,[12],3360 nM
same,GI50,[13],1560 nM
same,TGI,[13],3100 nM
same,GI50,[14],47.5 nM
same,TGI,[14],1330 nM
same,GI50,[15],1330 nM
same,TGI,[15],2610 nM
same,GI50,[16],545 nM
same,TGI,[16],1910 nM
same,GI50,[17],1230 nM
same,TGI,[17],2510 nM
same,GI50,[18],1900 nM
same,TGI,[18],3320 nM
same,GI50,[19],1370 nM
same,TGI,[19],2810 nM
same,GI50,[20],2230 nM
same,TGI,[20],3690 nM
same,GI50,[21],137 nM
same,TGI,[21],286 nM
same,GI50,[22],1110 nM
same,TGI,[22],2350 nM
same,GI50,[23],750 nM
same,TGI,[23],2040 nM
same,GI50,[24],468 nM
same,TGI,[24],1510 nM
same,GI50,[25],1580 nM
same,TGI,[25],2960 nM
same,GI50,[26],1820 nM
same,TGI,[26],3250 nM
same,GI50,[27],1460 nM
same,TGI,[27],2860 nM
same,GI50,[28],1340 nM
same,TGI,[28],2620 nM
same,GI50,[29],1400 nM
same,TGI,[29],2790 nM
same,GI50,[30],1360 nM
same,TGI,[30],2890 nM
same,GI50,[31],1340 nM
same,TGI,[31],2780 nM
same,GI50,[32],1750 nM
same,TGI,[32],3140 nM
same,GI50,[33],1280 nM
same,TGI,[33],2820 nM
same,GI50,[34],1760 nM
same,TGI,[34],3330 nM
same,GI50,[35],1720 nM
same,TGI,[35],3120 nM
same,GI50,[36],2000 nM
same,TGI,[36],3650 nM
same,GI50,[37],14600 nM
same,TGI,[37],> 100000 nM
same,GI50,[38],1440 nM
same,TGI,[38],2870 nM
same,GI50,[39],1870 nM
same,TGI,[39],3290 nM
same,GI50,[40],1640 nM
same,TGI,[40],3070 nM
same,GI50,[41],1610 nM
same,TGI,[41],3240 nM
same,GI50,[42],812 nM
same,TGI,[42],2190 nM
same,GI50,[43],1720 nM
same,TGI,[43],3130 nM
same,GI50,[44],1710 nM
same,TGI,[44],3090 nM
same,GI50,[45],2040 nM
same,TGI,[45],3470 nM
same,GI50,[46],1580 nM
same,TGI,[46],2970 nM
same,GI50,[47],1300 nM
same,TGI,[47],2690 nM
